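Test compounds were applied to cells in 96-well plates for 48 hours at 5 doses. GI50 is the concentration that inhibits growth by half. The concentration for full growth arrest is given as TGI.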
What was measured:
Experiment in all cases: growth of human tumour cells (NCI), 48 h
[1] = test system: M14 melanoma
[2] = test system: 786-0 renal
[3] = test system: HCC-2998 colon
[4] = test system: PC-3 prostate
[5] = test system: MALME-3M melanoma
[6] = test system: NCI-H226 lung
[7] = test system: BT-549 breast
[8] = test system: RXF 393 renal
[9] = test system: IGROV1 ovarian
[10] = test system: HT29 colon
[11] = test system: SK-MEL-28 melanoma
[12] = test system: NCI-H460 lung
[13] = test system: EKVX NSCLC
[14] = test system: MOLT-4 leukemia
[15] = test system: SR leukemia
[16] = test system: SN12C renal
[17] = test system: CCRF-CEM leukemia
[18] = test system: SK-OV-3 ovarian
[19] = test system: UACC-62 melanoma
[20] = test system: HOP-62 NSCLC
[21] = test system: RPMI-8226 leukemia
[22] = test system: UACC-257 melanoma
[23] = test system: DU-145 prostate
[24] = test system: T-47D breast
[25] = test system: NCI-H522 lung
[26] = test system: SF-268 CNS
[27] = test system: NCI/ADR-RES ovarian
[28] = test system: A498 renal
[29] = test system: SF-539 CNS
[30] = test system: OVCAR-5 ovarian
[31] = test system: OVCAR-8 ovarian
[32] = test system: U251 CNS
[33] = test system: MDA-MB-231 breast
[34] = test system: LOX IMVI melanoma
[35] = test system: KM12 colon
[36] = test system: SNB-19 CNS
[37] = test system: TK-10 renal
[38] = test system: HOP-92 NSCLC
[39] = test system: OVCAR-4 ovarian
[40] = test system: HCT-116 colon
[41] = test system: ACHN renal
[42] = test system: MCF7 breast
[43] = test system: UO-31 renal
[44] = test system: SF-295 CNS
[45] = test system: HS 578T breast
[46] = test system: SK-MEL-2 melanoma
[47] = test system: COLO 205 colon
[48] = test system: CAKI-1 renal
[49] = test system: SW-620 colon
[50] = test system: HCT-15 colon
[51] = test system: HL-60(TB) leukemia
[52] = test system: A549 NSCLC
[53] = test system: SNB-75 CNS
[54] = test system: SK-MEL-5 melanoma
[55] = test system: MDA-MB-435

CCCCCCNC(=O)Oc1ccc(/C(=C(/C)c2ccc(OC)cc2)c2ccc(OCCN3CCCCCC3)cc2)cc1
GI50 [1]: 1.81 µM
TGI [1]: 3.56 µM
GI50 [2]: 1.68 µM
TGI [2]: 3.1 µM
GI50 [3]: 2.09 µM
TGI [3]: 4.71 µM
GI50 [4]: 3.05 µM
TGI [4]: 11.4 µM
GI50 [5]: 1.77 µM
TGI [5]: 3.44 µM
GI50 [6]: 10.3 µM
TGI [6]: 23.6 µM
GI50 [7]: 2.66 µM
TGI [7]: 7.94 µM
GI50 [8]: 1.8 µM
TGI [8]: 3.85 µM
GI50 [9]: 3.66 µM
TGI [9]: 13.6 µM
GI50 [10]: 1.71 µM
TGI [10]: 4.09 µM
GI50 [11]: 1.86 µM
TGI [11]: 3.73 µM
GI50 [12]: 1.9 µM
TGI [12]: 3.52 µM
GI50 [13]: 5.15 µM
TGI [13]: 19.2 µM
GI50 [14]: 2.38 µM
TGI [14]: 7.45 µM
GI50 [15]: 1.32 µM
TGI [15]: 4.6 µM
GI50 [16]: 1.97 µM
TGI [16]: 4.77 µM
GI50 [17]: 2.62 µM
TGI [17]: > 100 µM
GI50 [18]: 7.57 µM
TGI [18]: 21.2 µM
GI50 [19]: 2.21 µM
TGI [19]: 4.97 µM
GI50 [20]: 6.7 µM
TGI [20]: 20.7 µM
GI50 [21]: 2.21 µM
TGI [21]: 5.47 µM
GI50 [22]: 2.1 µM
TGI [22]: 5.05 µM
GI50 [23]: 8.29 µM
TGI [23]: 23.4 µM
GI50 [24]: 1.39 µM
TGI [24]: 4.01 µM
GI50 [25]: 4.12 µM
TGI [25]: 16.2 µM
GI50 [26]: 7.36 µM
TGI [26]: 24 µM
GI50 [27]: 2.91 µM
TGI [27]: 11.2 µM
GI50 [28]: 7.14 µM
TGI [28]: 20.2 µM
GI50 [29]: 1.67 µM
TGI [29]: 3.1 µM
GI50 [30]: 7.03 µM
TGI [30]: 20.5 µM
GI50 [31]: 1.96 µM
TGI [31]: 3.99 µM
GI50 [32]: 1.72 µM
TGI [32]: 3.33 µM
GI50 [33]: 1.89 µM
TGI [33]: 3.76 µM
GI50 [34]: 1.45 µM
TGI [34]: 2.76 µM
GI50 [35]: 10.9 µM
TGI [35]: 24.2 µM
GI50 [36]: 7.29 µM
TGI [36]: 32.1 µM
GI50 [37]: 17 µM
TGI [37]: 31.3 µM
GI50 [38]: 2 µM
TGI [38]: 6.96 µM
GI50 [39]: 4.6 µM
TGI [39]: 18.5 µM
GI50 [40]: 1.52 µM
TGI [40]: 2.85 µM
GI50 [41]: 3.17 µM
TGI [41]: 10.4 µM
GI50 [42]: 0.377 µM
TGI [42]: 2.58 µM
GI50 [43]: 2.14 µM
TGI [43]: 6.63 µM
GI50 [44]: 1.76 µM
TGI [44]: 3.36 µM
GI50 [45]: 2.75 µM
TGI [45]: 12.3 µM
GI50 [46]: 2.09 µM
TGI [46]: 4.79 µM
GI50 [47]: 1.88 µM
TGI [47]: 3.54 µM
GI50 [48]: 3.84 µM
TGI [48]: 15 µM
GI50 [49]: 2.01 µM
TGI [49]: 4.15 µM
GI50 [50]: 1.48 µM
TGI [50]: 3.15 µM
GI50 [51]: 0.988 µM
TGI [51]: 3.47 µM
GI50 [52]: 3.56 µM
TGI [52]: 14.4 µM
GI50 [53]: 5.79 µM
TGI [53]: 22.1 µM
GI50 [54]: 1.69 µM
TGI [54]: 3.12 µM
GI50 [55]: 2.11 µM
TGI [55]: 4.71 µM

From PubChem BioAssay (NCI)
